Data: PMC10654507, “A cleavable chimeric peptide with targeting and killing domains enhances LPS neutralization and antibacterial properties against multi-drug resistant E. coli” (Communications Biology, 2023)
Values after ≈ are worked out from the molar mass of the structure shown. Like-named read-outs stand apart in the source and are kept apart here. Residues, ends and D or L forms follow the SMILES beside them. No end group written: not given here.

Key:
[1] = test system: S. aureus CVCC546; format: cell-based, Staphylococcus aureus
Method: (§1) The minimum inhibitory concentration (MIC) and minimum bactericidal concentration (MBC) of peptides were determined by the microtiter broth dilution method according to Clinical and Laboratory Standards Institute (CLSI) guidelines. […] PBS was used as the negative control. […] The MBC value was calculated as the lowest concentration of peptides resulting in a 99.9% reduction of the original inoculum. All experiments were repeated three times.

[2] = test system: Staphylococcus aureus ATCC43300; format: cell-based; conditions: ATCC43300, 18 h
Method: as §1

[3] = test system: Escherichia coli CVCC195; format: cell-based
Method: as §1

[4] = test system: E. coli, S. typhimurium and S. aureus; format: cell-based; conditions: 18 h
Method: as §1

[5] = test system: S. typhimurium CVCC533; format: cell-based, Salmonella typhimurium
Method: as §1

[6] = test system: E. coli 0111: B4 LPS; experiment: BC (BODIPY-TR-cadaverine) displacement assay, binding to LPS; design: species or system Escherichia coli; unit not given here; conditions: Fig. 4a source data, mean
Method: The binding of peptides to LPS was determined according to the method described previously[34],[59]. In brief, E. coli 0111: B4 LPS (40 μg/mL) and BODIPY-TR-cadaverine (BC) (10 μM) were mixed in 50 mM Tris buffer (pH = 7.4) in equal proportions and added to a 96-well black plate (180 μL/well) in the dark. Different concentrations of chimeric peptide R7 and its parental (20 μL) were added into each well and detected by a fluorescence spectrophotometry at room temperature (excitation wavelength 580 nm, emission wavelength 620 nm). The change in relative fluorescence was recorded and the BC displacement rate was calculated. Polymycin B (PMB) was used as the positive control.

[7] = lowest concentration giving 99.9% reduction of the inoculum, repeated three times
[8] = microtiter broth dilution, 10^5 CFU/mL, 37 °C, 16 ~ 18 h, repeated three times

Molecule | MBC ([1]; CVCC546, 18 h) [µM] | MIC ([1]; CVCC546, 18 h) [µM] | MBC [2] [µM] | MIC [2] [µM] | MBC ([3]; CVCC195, 18 h) [µM] | MIC ([3]; CVCC195, 18 h) [µM] | MIC ([5]; CVCC533, 18 h) [µM] | other results
RVQGRWKVRASFFKEAAAKEAAAKFKAWRWAWRMKKLAAPS [A7] | >36.2 | >36.2 | >36.2 | >36.2 | 36.2 | 36.2 | >36.2 | antibacterial activity (MIC) [4]: ≥ 18.1 µM; MBC ([5]; CVCC533, 18 h): >36.2 µM
CSCC[C@H](NC(=O)[C@H](CCCNC(=N)N)NC(=O)[C@H](Cc1c[nH]c2ccccc12)NC(=O)[C@H](C)NC(=O)[C@H](Cc1c[nH]c2ccccc12)NC(=O)[C@H](CCCNC(=N)N)NC(=O)[C@H](Cc1c[nH]c2ccccc12)NC(=O)[C@H](C)NC(=O)[C@H](CCCCN)NC(=O)[C@H](Cc1ccccc1)NC(=O)[C@H](CO)NC(=O)CNC(=O)CNC(=O)CNC(=O)CNC(=O)[C@H](CCCCN)NC(=O)[C@H](Cc1ccccc1)NC(=O)[C@H](Cc1ccccc1)NC(=O)[C@H](CO)NC(=O)[C@H](C)NC(=O)[C@H](CCCNC(=N)N)NC(=O)[C@@H](NC(=O)[C@H](CCCCN)NC(=O)[C@H](Cc1c[nH]c2ccccc12)NC(=O)[C@H](CCCNC(=N)N)NC(=O)CNC(=O)[C@H](CCC(N)=O)NC(=O)[C@@H](NC(=O)[C@@H](N)CCCNC(=N)N)C(C)C)C(C)C)C(=O)N[C@@H](CCCCN)C(=O)N[C@@H](CCCCN)C(=O)N[C@@H](CC(C)C)C(=O)N[C@@H](C)C(=O)N[C@@H](C)C(=O)N1CCC[C@H]1C(=O)N[C@@H](CO)C(=O)O [G7] (H-RVQGRWKVRASFFKGGGGSFKAWRWAWRMKKLAAPS-OH) | >36.2 | >36.2 | >36.2 | >36.2 | 18.1 (≈ 75.9 µg/mL) | 18.1 (≈ 75.9 µg/mL) | >36.2 | antibacterial activity (MIC) [4]: ≥ 18.1 µM
CC(C)[C@H](NC(=O)[C@H](CCCCN)NC(=O)[C@H](Cc1c[nH]c2ccccc12)NC(=O)[C@H](CCCNC(=N)N)NC(=O)CNC(=O)[C@H](CCC(N)=O)NC(=O)[C@@H](NC(=O)[C@@H](N)CCCNC(=N)N)C(C)C)C(=O)N[C@@H](CCCNC(=N)N)C(=O)N[C@@H](C)C(=O)N[C@@H](CO)C(=O)N[C@@H](Cc1ccccc1)C(=O)N[C@@H](Cc1ccccc1)C(=O)N[C@@H](CCCCN)C(=O)O [LBP14, reference compound] (H-RVQGRWKVRASFFK-OH) | >36.2 | 36.2 (≈ 63.9 µg/mL) | 36.2 (≈ 63.9 µg/mL) | 36.2 (≈ 63.9 µg/mL) | 4.53 (≈ 8 µg/mL) | 4.53 (≈ 8 µg/mL) | 18.1 (≈ 31.9 µg/mL) | MBC ([5]; CVCC533, 18 h): 18.1 µM (≈ 31.9 µg/mL)
CC(C)[C@H](NC(=O)[C@H](CCCCN)NC(=O)[C@H](Cc1c[nH]c2ccccc12)NC(=O)[C@H](CCCNC(=N)N)NC(=O)CNC(=O)[C@H](CCC(N)=O)NC(=O)[C@@H](NC(=O)[C@@H](N)CCCNC(=N)N)C(C)C)C(=O)N[C@@H](CCCNC(=N)N)C(=O)N[C@@H](C)C(=O)N[C@@H](CO)C(=O)N[C@@H](Cc1ccccc1)C(=O)N[C@@H](Cc1ccccc1)C(=O)N[C@@H](CCCCN)C(=O)N[C@@H](CCCNC(=N)N)C(=O)N[C@@H](CCCCN)C(=O)N[C@@H](CCCNC(=N)N)C(=O)O [LBP14-RKR] (H-RVQGRWKVRASFFKRKR-OH) |  | 9.06 (≈ 20 µg/mL) |  | 4.53 (≈ 9.99 µg/mL) |  | 2.26 (≈ 4.98 µg/mL) | 4.53 (≈ 9.99 µg/mL) | 
CC(C)[C@H](NC(=O)[C@H](CCCCN)NC(=O)[C@H](Cc1c[nH]c2ccccc12)NC(=O)[C@H](CCCNC(=N)N)NC(=O)CNC(=O)[C@H](CCC(N)=O)NC(=O)[C@@H](NC(=O)[C@@H](N)CCCNC(=N)N)C(C)C)C(=O)N[C@@H](CCCNC(=N)N)C(=O)N[C@@H](C)C(=O)N[C@@H](CO)C(=O)N[C@@H](Cc1ccccc1)C(=O)N[C@@H](Cc1ccccc1)C(=O)N[C@@H](CCCCN)C(=O)N[C@@H](CCCNC(=N)N)C(=O)N[C@@H](CCCCN)C(=O)N[C@@H](CCCNC(=N)N)C(=O)N[C@@H](CCCNC(=N)N)C(=O)O [LBP14-RKRR] (H-RVQGRWKVRASFFKRKRR-OH) | 9.06 (≈ 21.4 µg/mL) | 9.06 (≈ 21.4 µg/mL) |  | 4.53 (≈ 10.7 µg/mL) | 2.26 (≈ 5.34 µg/mL) | 2.26 (≈ 5.34 µg/mL) | 4.53 (≈ 10.7 µg/mL) | 
CSCC[C@H](NC(=O)[C@H](CCCNC(=N)N)NC(=O)[C@H](Cc1c[nH]c2ccccc12)NC(=O)[C@H](C)NC(=O)[C@H](Cc1c[nH]c2ccccc12)NC(=O)[C@H](CCCNC(=N)N)NC(=O)[C@H](Cc1c[nH]c2ccccc12)NC(=O)[C@H](C)NC(=O)[C@H](CCCCN)NC(=O)[C@H](Cc1ccccc1)NC(=O)[C@@H](N)CCCNC(=N)N)C(=O)N[C@@H](CCCCN)C(=O)N[C@@H](CCCCN)C(=O)N[C@@H](CC(C)C)C(=O)N[C@@H](C)C(=O)N[C@@H](C)C(=O)N1CCC[C@H]1C(=O)N[C@@H](CO)C(=O)O [R-L7] (H-RFKAWRWAWRMKKLAAPS-OH) |  | 18.1 (≈ 41.4 µg/mL) |  | 18.1 (≈ 41.4 µg/mL) |  | 2.26 (≈ 5.17 µg/mL) | 18.1 (≈ 41.4 µg/mL) | 
polymyxin B [PMB, reference compound] |  |  |  |  |  |  |  | binding affinity to LPS ([6]; peptide concentration 0.05 μM): 10.8258; binding affinity to LPS ([6]; peptide concentration 0.1 μM): 13.138; binding affinity to LPS ([6]; peptide concentration 0.5 μM): 19.3303; binding affinity to LPS ([6]; peptide concentration 1 μM): 24.2435; binding affinity to LPS ([6]; peptide concentration 5 μM): 53.9917; binding affinity to LPS ([6]; peptide concentration 10 μM): 65.3662; binding affinity to LPS ([6]; peptide concentration 50 μM): 89.1421; binding affinity to LPS ([6]; peptide concentration 100 μM): 85.6684; MBC [1, 7]: >64 µM; MIC [1, 8]: >64 µM; MBC [3, 7]: 1 µM; MIC [3, 8]: 1 µM; MBC [5, 7]: 8 µM; MIC [5, 8]: 8 µM
